Among the data in ChEMBL document CHEMBL5247586, “Discovery of fusidic acid derivatives as novel STING inhibitors for treatment of sepsis” (Eur J Med Chem, 2022) are viability, inhibition and IC50 values, retold here.

One may read the inhibition as the change of the read-out against control, counted positive when it falls. What is called IC50 is the concentration needed to halve the response being measured.

The nature of data set [1]: Cytotoxicity against mouse RAW264.7 cells assessed as cell viability at 40 uM measured after 24 hrs by MTT assay relative to control. Format: toxicity, cell-based. Conditions: read-out: Activity. Background: Formazan colour is commonly taken as a measure of viable cells.
Data set [2] has as its system RAW264.7. The data set is described as follows: Anti inflammatory activity in LPS-induced mouse RAW264.7 cells assessed as inhibition of NO production at 2.5 uM preincubated with compound for 2 hrs followed by LPS stimulation and measured after 24 hrs by griess reagent based assay relative to control. The format is functional. Conditions: time 26 hrs.
The subject of data set [3] is RAW264.7. Kind of data set: Anti inflammatory activity in LPS-induced mouse RAW264.7 cells assessed as inhibition of NO production at 5 uM preincubated with compound for 2 hrs followed by LPS stimulation and measured after 24 hrs by griess reagent based assay relative to control. Format: functional. Conditions: time 26 hrs.
Data set [4] concerns RAW264.7. Kind of data set: Anti inflammatory activity in LPS-induced mouse RAW264.7 cells assessed as inhibition of NO production preincubated with compound for 2 hrs followed by LPS stimulation and measured after 24 hrs by griess reagent based assay. Format: functional, cell-based.

Consider `CC(=O)O[C@H]1C[C@@]2(C)[C@@H](C[C@@H](O)[C@H]3[C@@]4(C)CC[C@@H](OC(=O)CCSSCCC(=O)NOC5CCCCO5)[C@@H](C)[C@@H]4CC[C@@]32C)/C1=C(\CCC=C(C)C)C(=O)OCc1ccccc1` (some centres not stated), for which the viability at 24 h, 40 µM in data set [1] is 90.2%. The inhibition at 2.5 µM in the data set on RAW264.7 [2] was found to be 55.2%. The inhibition at 5 µM in the data set on RAW264.7 [3] stood at 65.2%. Moreover, the IC50 with RAW264.7 [4] was 2620 nM.

Turning to `CC(=O)O[C@H]1C[C@@]2(C)[C@@H](C[C@@H](O)[C@H]3[C@@]4(C)CC[C@@H](OC(=O)c5ccccc5C(=O)N5CCCCC5)[C@@H](C)[C@@H]4CC[C@@]32C)/C1=C(\CCC=C(C)C)C(=O)OCc1ccccc1`, the viability at 24 h, 40 µM in data set [1] worked out at 103%. Further, in the data set on RAW264.7 [2], the inhibition at 2.5 µM was 16.9%. In addition, in the data set on RAW264.7 [3], the inhibition at 5 µM was 30.8%. Further, in the data set on RAW264.7 [4], the IC50 is 11600 nM.

On to `CON(C)C(=O)CCSSCCC(=O)O[C@@H]1CC[C@@]2(C)[C@@H](CC[C@@]3(C)[C@H]2[C@H](O)C[C@H]2/C(=C(\CCC=C(C)C)C(=O)OCc4ccccc4)[C@@H](OC(C)=O)C[C@@]23C)[C@@H]1C`, for which the viability at 24 h, 40 µM in data set [1] was 90.2%. Further, in the data set with RAW264.7 [2], the inhibition at 2.5 µM came out at 54.6%. Besides, the inhibition at 5 µM with RAW264.7 [3] was 59.3%. Further, in the data set with RAW264.7 [4], the IC50 was found to be 2500 nM.
